Measurements taken from a melting point compilation (Tetko et al.; mined from patent text by program, amines drawn as free bases though some values may be those of a salt).

Row | Compound | melting point [°C]
1 | COCN(c1cccc2cc(C(=O)O)n(COC)c12)S(=O)(=O)c1cccs1 | 183 to 184
2 | COc1ccc(-c2sc3cc(OC)ccc3c2C(=O)c2c(OC)cccc2OC)cc1 | 146 to 152
3 | CC(=NOCCOc1ccc(C[C@H](Oc2ccc(C)cc2)C(=O)O)cc1)c1ccc(-c2ccccc2)cc1 | 128 to 130
4 | CC(C)(C)COc1c(-c2ccc(S(N)(=O)=O)cc2)cnn(CC(F)(F)F)c1=O | 123 to 124
5 | O=C(O)c1cccc(-c2ccc3occ(-c4ccc(Cl)cc4Cl)c3c2)c1 | 271 to 272
6 | CCCc1nc2c(N)nc3ccccc3c2n1CCCC(=O)N(C)OC | 163 to 165
7 | CC(Cc1ccc(OCCO)cc1)NCC(O)c1ccccc1F (stereo not given) | 80 to 95
8 | CC(C)(COc1ccc(Cl)cc1)C(O)C(Oc1ccc(Cl)cc1)n1ccnc1 (stereo not given) | 142 to 144
9 | CN(C)c1ccc2ncnc(Cl)c2c1 | 126 to 128
10 | COc1cc(C=CC(CSc2ccccc2)=NO)ccc1O | 90 to 100
11 | CCCCc1ncc(/C=C(/C(=O)O)c2ccccc2)n1Cc1ccccc1Cl | 210 to 212
12 | Oc1ccc(O)c(-c2noc3cc(O)ccc23)c1 | 215 to 217
13 | COC(=O)c1cnc(Cl)o1 | 35 to 50
14 | c1ccc(COc2ccc(-c3cscn3)cc2)cc1 | 109 to 110
15 | O=C1Nc2c(F)cc(F)cc2C1c1ncnc2c1cnn2C1CCCC1 (stereo not given) | > 300
16 | O=C1NCN(c2ccccc2)C12CCN(CCCn1cnc3ccccc31)CC2 | 191
17 | O=C1CCN(C(=O)C(F)(F)F)c2ccccc2CN1 | 218 to 219
18 | O=C(O)CN1CC2(CCCCC2)CC1=O | 122 to 124
19 | O=C(O)c1cccc(NC(=O)[C@H](CO)NS(=O)(=O)c2ccc(Cl)cc2)c1 | 220 to 224
20 | COc1ccc(C(C)(C)C(=O)O)cc1 | 86 to 88

Row | Compound | melting point [°C]
21 | CCCCCCCCCCCCCCCCCC(O)c1ccc(C2=NC(C)(C)CO2)c(Cl)c1 (stereo not given) | 74 to 78
22 | COC(=O)c1c(C2=CC(=O)c3cccc(O)c3C2=O)c(C)n(C)c1C | 178 to 180
23 | Cc1ccccc1-c1ccc(C(=O)N2Cc3ccc(C(=O)CCc4cccnc4)n3Cc3ccccc32)cc1 | 135 to 136
24 | CCn1cc(C(=O)O)c2ccc(Cl)cc21 | 225 to 227
25 | O=C(NCc1ccc(Cl)cc1)c1cn2c(CCCO)cc3cc(CN4CCOCC4)cc(c1=O)c32 | 171 to 174
26 | CCCCCCCCCCCCCCc1ccc(N(CC(=O)OC)CC(=O)OC)cc1 | 160 to 165
27 | CNC1(C)CN(c2c(F)cc3c(=O)c(C(=O)O)cn(C4CC4)c3c2F)C1 | > 300
28 | O=C(NCc1c[nH]c(=S)n1[C@H]1CCc2c(F)cc(F)cc2C1)c1ccccn1 | 216 to 217
29 | Cc1n[nH]c(=O)n(Cc2ccccc2)c1=O | 143 to 146
30 | NC(=O)c1ccc(Sc2ccc(Cl)cc2)c(Cl)c1 | 176 to 177
31 | Cc1cccc2ncc(C(=O)Nc3ccc(Cl)cc3)c(=O)n12 | 202 to 204
32 | O=C(NCc1cccnc1)c1ccnc(N2CCN(CC3CC3)C2=O)c1 | 122 to 123
33 | Cc1ccccc1-c1c(NC(=O)Nc2ccc(F)cc2F)c(=O)oc2ccc(C(C)C)cc12 | 199 to 200
34 | CCn1ncnc1COc1nn2c(-c3ccccc3F)nncc2c1-c1ccsc1 | 187 to 193
35 | COC(=O)NN=Cc1ccnc2ccccc12 | 83.5
36 | CCOC(=O)C(=O)Nc1coc2ccccc2c1=O | 146 to 148
37 | O=c1nc(-c2ccc3c(c2)OCCO3)c2cc3c(cc2[nH]1)OCO3 | > 300
38 | O=c1[nH]c2ccccc2n1CCCN1CCC(O)(c2ccc(Cl)cc2)CC1 | 134
39 | COc1ccc2c(c1)CCN(C=O)C2c1cc(Cl)nc(Cl)c1 (single isomer, unassigned; (-)) | 156 to 158
40 | CCc1nc2c(N)nc3ccccc3c2n1CCCC#Cc1cccc(C(F)(F)F)c1 | 178 to 181

Row | Compound | melting point [°C]
41 | CNc1nc(-c2cccc(-c3ccc4nccn4c3)c2)c2cc(OC)c(OC)cc2n1 | 237 to 239
42 | CCCc1c(OCCOc2cccc(Sc3ccc(C(=O)O)cc3)c2)ccc(C(C)=O)c1O | 144 to 146
43 | CC(Oc1ccc(Oc2ccc3cc(Cl)ccc3n2)cc1)C(=O)O (stereo not given) | 130
44 | CSCCCCCC=C(NC(=O)C1CC1(C)C)C(=O)O (stereo not given) | 82 to 84
45 | O=C(O)CCCOc1ccc([C@H]2c3ccc(O)cc3OC[C@H]2c2ccccc2)cc1 (racemic) | 91.5 to 94
46 | COc1ccc(-c2cc(C)sc2-c2ccc(OC)cc2)cc1 | 93 to 97
47 | O=C(CS(=O)(=O)c1ccccc1)c1ccnc(Cl)c1 | 124 to 126
48 | OCC(CO)Cc1cccc(Br)c1 | 61 to 63
49 | C=C(C)c1c(C)oc2c(NC(=O)c3c(Cl)cccc3Cl)cccc12 | 147 to 148
50 | Cc1cc(-c2c(O)c(=O)c2=O)c2c(C)ccc(C(C)C)cc1-2 | 120 to 123
51 | CC(C)C1CC(=O)C(C(=O)NS(=O)(=O)c2ccc(Cl)cc2)C(=O)C1 (stereo not given) | 100 to 102
52 | CC(C)(C)OC(=O)NNC(=O)c1ccc(O)c(O)c1 | 148
53 | CS(=O)(=O)CN=C(N)NCCSCc1csc(NC(N)=NCC(F)(F)C(F)(F)F)n1 | 149 to 151
54 | CCOC(=O)c1cccc2nc(C(C)C)n(Cc3ccc(-c4ccccc4-c4nnn[nH]4)cc3)c12 | 144 to 146
55 | Cc1ccc(C2CC(N)=NN2c2ccccc2)cc1 (stereo not given) | 165 to 166
56 | O=[N+]([O-])c1cc(C(F)(F)F)ccc1NC1CCCCC1 | 80.1
57 | CC(C)CN1CCC(N(C)S(=O)(=O)c2ccc(Nc3nccc(Nc4ccc(F)cc4)n3)cc2)CC1 | 194 to 195
58 | O=[N+]([O-])c1ccc(Br)cc1-c1cc(-c2cccc(Br)c2)on1 | 195 to 197

The next lines start with the values.

Row | melting point [°C] | Compound
59 | 211 to 212 | NC(=O)NN=Cc1ccc(OCc2ccccc2F)cc1
60 | 216 to 219 | CC(C)(C)Sc1c(CC(C)(C)C(=O)O)n(Cc2ccc(Cl)cc2)c2ccc(OCc3cnc4ccccc4n3)cc12
61 | 155 to 157 | C=CC[C@H](CC(=O)OC(C)(C)C)C(=O)N[C@H](C(=O)N[C@H](COC)c1ccccc1)C(C)C
62 | 71 to 74 | CCOC(=O)C=C(C)c1ccc([N+](=O)[O-])cc1
63 | > 300 | CN(C)C=Nc1ccc(-c2cc3c(Nc4cccc(Cl)c4)ncnc3[nH]2)cc1
64 | 134 to 135 | CCCc1nn(-c2ccc(C(F)(F)F)cn2)cc1CCCOc1c(C)cccc1CC(=O)O
65 | 154 to 157 | COC(=O)c1cccc2nc(Cl)n(Cc3ccc(-c4ccccc4C#N)cc3)c12
66 | 59 to 61 | COC(=O)[C@H]1NC(=O)[C@H]1N (relative stereo)
67 | 172 to 173 | CN1Cc2cccnc2N(c2ccccc2)C1=O
68 | 94 to 95 | Cc1oc(/C=C/c2ccccc2)nc1COc1ccc(CCCn2ccnc2)cc1
69 | 143 to 145 | COc1nc(C(F)(F)C(F)(F)F)cc(=O)n1-c1cc(O)c(Cl)cc1F
70 | 138 to 139 | Oc1cccc(C2CNC3(CCCCC3)O2)c1 (stereo not given)
71 | 320 to 325 | CC1(C)C(=O)Nc2cc3[nH]c(-c4ccc(Cl)c(Cl)c4)nc3cc21
72 | 80 | CC(C)(C)OC(=O)N1CCC(CNC(=O)[C@@H]2CCCN2S(=O)(=O)c2ccc(Cl)c(CBr)c2Cl)CC1
73 | 132 to 134 | CCOC(=O)NC(C)CCC1(O)c2ccccc2CCc2c(C)cccc21 (stereo not given)
74 | 144 to 146 | O=C(c1ccccc1)n1c(=O)c(C(F)(F)F)cn(C2CC(O)C(CO)O2)c1=O (stereo not given)
75 | 148 to 150 | CON(c1ccc([N+](=O)[O-])cc1[N+](=O)[O-])S(=O)(=O)c1cccc(C)c1
76 | 73 | CCCCCCc1ncc(C(=O)O)s1
77 | 262 to 268 | O=C(/C=C/c1c[nH]c2ccc(O)cc12)c1ccncc1
78 | 124 | Cc1cc(O)c(SCc2cccc(F)c2)c(=O)o1
79 | 58 to 60 | O=C(N1CCOc2ccccc21)C(F)(F)F

Row | melting point [°C] | Compound
80 | 105 to 110 | CCCCCCC(C(=O)O)N1NCc2cc(-c3ccccc3-c3nn[nH]n3)ccc21 (stereo not given)
81 | 212 to 214 | CCC12CCC(=O)C=C1c1c(cc(OCC(=O)O)c(Cl)c1Cl)C2C (stereo not given)
82 | 71 to 73 | Nc1ccc(CCOCCCCCCNCC(O)c2cc(Cl)c(N)c(Cl)c2)cc1 (stereo not given)
83 | 134 to 137 | C=Cc1ccc(Nc2c(C(=O)NOCCO)ccc(F)c2F)c(F)c1
84 | 198 to 199 | COc1ccc(C(=O)c2cccc(OCc3nc(-c4ccccc4)oc3C)c2)c(OCC(=O)O)c1
85 | 140 | CCCCC(=O)C(Cc1ccc(C(=O)O)cc1)c1ccccc1 (stereo not given)
86 | 170 to 171 | Cc1cc(CCCCCOc2ccc(C3=NCCO3)cc2C(=O)O)on1
87 | 174 to 176 | Cc1ccc(NS(=O)(=O)c2ccc(N)cc2)cc1
88 | 166 to 169 | CCOC(=O)C1(Cc2ccc(OC)c(OC)c2)C(=S)NCC1c1ccc(OC)c(OC)c1 (stereo not given)
89 | 133 to 134 | CC(C(=O)O)c1cccc2c1Oc1ccccc1CC2 (stereo not given)
90 | 201 to 204 | COc1ccc(Cc2nc3c(N)nc4ccccc4c3n2CCOc2ccccc2)cc1
91 | 118 | CCN(CC)c1nc2cc(C)nn2c2ccncc12
92 | 172 to 173 | CC(C)Cc1ccc(C(C)C(=O)NCCCCn2cnc3c(N)nc4ccccc4c32)cc1 (stereo not given)
93 | 243 | O=C1CC(c2cccc(-n3ccnn3)c2)=Nc2cc(O)c(C#Cc3ccc(F)cc3)cc2N1
94 | 194 to 196 | Clc1ccc(-c2cccc3[nH]c4c(c23)CCN(Cc2ccccc2)CC4)c(Cl)c1
95 | 241 to 243 | COc1ccc(-c2c(Cl)c(CN3C(=O)CCC3=O)nc3sc4c(c23)CCN(Cc2ccccc2)C4)cc1
96 | 230 to 231 | Nc1ccc(N2C(=O)CNC2=O)cc1
97 | 119 to 120 | Cc1cc(C)cc(NC(=O)Cc2ccc(OC3(C(=O)N[C@H](CC(C)C)C(=O)O)CCCC3)cc2)c1
98 | 224 to 226 | CCOc1ccccc1-c1nc2nc(SC)ncc2c(=O)[nH]1
99 | 100 | Clc1ccc(-c2nc(CCCCCc3nnn[nH]3)oc2-c2ccc(Cl)cc2)cc1
100 | 90 to 91 | Cn1cc(Oc2ccc(Cl)cc2)c(=O)c(-c2cccc(C(F)(F)F)c2)c1
